Tests used:
HUVEC cells = assay: MTT reduction assay, βA peptide-induced toxicity, HUVEC cells; assay type: cell-based, human
Experimental: (§1) The degree of βA insult was measured by 3-[4,5-dimethylthiazol-2-yl]-2,5-diphenyltetrazolium bromide (MTT) reduction assay. […] The detection of cell growth or cell death can be determined by observing the conversion of MTT to the colored product, MTT formazan, the concentration of which can be measured […] at 550 nm.
(§2) Cells were incubated in MTT solution (5 mg/ml) at 37° C. for 2 hours. During this time, cells were observed under a microscope every 15 min. Cells were incubated in Lysing buffer (100 μl) overnight at 37° C. Colorimetric determination of MTT reduction was made at 550 nm.
(§3) PC12 rat pheochromocytoma and IMR32 human neuroblastoma cells were obtained from the American Type Culture Collection (ATCC). HUVEC normal umbilical human vein endothelial cells were obtained from Clonetics (San Diego, Calif.). Cells were routinely cultured on a tissue culture plate (Corning, N.Y., N.Y.). PC12 cells were grown in high glucose Dulbecco's Modified Eagle Medium (DMEM), 10% horse serum, 5% fetal calf serum, and 1% penicillin/streptomycin. IMR32 cells were grown in 90% DMEM and 10% fetal calf serum with 1% penicillin/streptomycin. HUVEC cells were grown in EGM-2 Bullet Kit (Clonetics, San Diego, Calif.).

PC12 cells = assay: MTT reduction assay, βA peptide-induced toxicity, PC12 cells; assay type: cell-based, rat; conditions: for Protection of PC12 cells from βA peptide insults (control study): even at 200 μg/ml, βA peptide(25-35) and βA peptide(1-42); for ED50 of βA peptide toxicity to PC12 cells: peptide alone, collagen-coated 96-well plates
Experimental: as §1, §2, §3
PC12 cells were cultured routinely on polystyrene-coated Corning tissue culture plates. […] The 96-well plates were coated with rat tail collagen (Boehringer Mannheim) in order to promote uniform PC12 cell attachment and growth.

[1] = test system: cells treated with βA peptide; assay: Protection of cells from βA peptide insult, statements in words (MTT assay, cells not singled out); assay type: cell-based; conditions: MTT reduction assay; PC12, IMR32, HUVEC cells where named in the sentence
Experimental: as §1, §2

IMR32 cells = assay: MTT reduction assay, βA peptide-induced toxicity, IMR32 cells; assay type: cell-based, human; conditions: for ED50 of βA peptide toxicity to IMR32 cells: peptide alone
Experimental: as §1, §2, §3

[2] = Antioxidant assay, scavenging of DPPH free radicals; conditions: for Antioxidant IC50: Table 2, synthesized curcuminoids, DPPH; for Antioxidant activity (DPPH free radical scavenging), in words: optical density change of DPPH radicals at 515 nm
Experimental: Kim et al., Neurosci Lett 303, 57 (2001) and Barik et al., Free Radic Biol Med 39, 811 (2005).
Using an antioxidant assay, the antioxidant potency of the compounds of the invention was evaluated. 1,1-Diphenyl-2-picrylhydrazyl (DPPH) is known to generate stable free radicals in aqueous and ethanolic solutions. The ability of the compounds of the invention to scavenge these free radicals was measured by observing the optical density change of DPPH radicals at 515 nm. Kim et al., Neurosci Lett 303, 57 (2001) and Barik et al., Free Radic Biol Med 39, 811 (2005).
The samples were prepared in various concentrations (200, 20, 2.0, and 0.2 μg/ml) by serial dilution of a stock solution (5 mg/ml) and were tested by the following procedure. Reaction mixtures containing test compounds (dissolved in DMSO) and 300 μM DPPH ethanolic solution in 96-well microtiter plates were incubated at 37° C. for 30 min. and absorbance was measured at 515 nm. Percent inhibition by sample treatment was determined by comparison with a DMSO-treated […] control group. IC50 values were determined from percent inhibition by sample. IC50 values denote the concentration of the tested compound that was required to scavenge 50% of the DPPH free radicals.

[3] = Table 2, synthesized curcuminoids
[4] = Table 3, ginger-derived natural product compounds

Compound | Anti-βA peptide(1-42) ED50 HUVEC (HUVEC cells; Table 4, ginkgo compounds) | Anti-βA peptide(25-35) ED50 HUVEC (HUVEC cells; Table 4, ginkgo compounds) | Anti-βA peptide(1-42) ED50 PC12 (PC12 cells; Table 4, ginkgo compounds) | Anti-βA peptide(25-35) ED50 PC12 (PC12 cells; Table 4, ginkgo compounds) | Protection of cells from βA peptide-induced toxicity, in words [1] | Anti-βA peptide(1-42) ED50 IMR32 (IMR32 cells; Table 4, ginkgo compounds) | Anti-βA peptide(25-35) ED50 IMR32 (IMR32 cells; Table 4, ginkgo compounds) | further results
CC1C(=O)OC2C(O)C34C5CC(C(C)(C)C)C36C(OC(=O)C6O)OC4(C(=O)O5)C12O (stereo not shown) [Ginkgolide B, reference compound] | toxic | toxic | toxic | toxic | do not possess biological activity | toxic | toxic | 
COc1ccc(/C=C/C(=O)CC(=O)CCc2ccc(O)cc2)cc1 [Compound 10] |  |  |  |  | cytotoxic |  |  | Anti-βA peptide(1-42) ED50 PC12 (PC12 cells; [3]): toxic; Anti-βA peptide(25-35) ED50 PC12 (PC12 cells; [3]): toxic; Antioxidant IC50 [2]: >200 µg/mL; Anti-βA peptide(1-42) ED50 IMR32 (IMR32 cells; [3]): toxic; Anti-βA peptide(25-35) ED50 IMR32 (IMR32 cells; [3]): toxic
O=C1O[C@H]([C@@H](O)CO)C(O)=C1O [vitamin C, reference compound] |  |  |  |  |  |  |  | Protection of PC12 cells from βA peptide insults (control study) (PC12 cells): did not protect
CCCCCCCCC=CC(=O)CCc1ccc(O)cc1 [Compound 50, [9]-demethoxyshogaol] |  |  |  |  | effectively protected |  |  | 
CCC/C=C/C(=O)CCc1ccc(O)c(OC)c1 [Compound 11] |  |  |  |  | effectively protected |  |  | Anti-βA peptide(1-42) ED50 HUVEC (HUVEC cells; [4]): 20 µg/mL; Anti-βA peptide(25-35) ED50 HUVEC (HUVEC cells; [4]): 20 µg/mL; Anti-βA peptide(1-42) ED50 PC12 (PC12 cells; [4]): 12 µg/mL; Anti-βA peptide(25-35) ED50 PC12 (PC12 cells; [4]): 15 µg/mL; Antioxidant activity (DPPH free radical scavenging), in words [2]: None of these compounds exhibited significant antioxidant activity; Anti-βA peptide(25-35) ED50 IMR32 (IMR32 cells; [4]): 15 µg/mL
O=C(CCc1ccccc1)CC(=O)CCc1ccc(O)cc1 [Compound 7] |  |  |  |  | cytotoxic |  |  | Anti-βA peptide(1-42) ED50 PC12 (PC12 cells; [3]): toxic; Anti-βA peptide(25-35) ED50 PC12 (PC12 cells; [3]): toxic; Antioxidant IC50 [2]: >200 µg/mL; Anti-βA peptide(1-42) ED50 IMR32 (IMR32 cells; [3]): toxic; Anti-βA peptide(25-35) ED50 IMR32 (IMR32 cells; [3]): toxic
Ginkgolide C [reference compound] | toxic | toxic | toxic | toxic | do not possess biological activity | toxic | toxic | 
Cc1c(C)c2c(c(C)c1O)CCC(C)(CCCC(C)CCCC(C)CCCC(C)C)O2 (stereo not shown) [vitamin E, reference compound] |  |  |  |  |  |  |  | Protection of PC12 cells from βA peptide insults (control study) (PC12 cells): did not protect
C[C@@H]1C(=O)O[C@H]2C[C@@]34[C@H]5C[C@@H](C(C)(C)C)[C@]36[C@@H](OC(=O)[C@@H]6O)O[C@@]4(C(=O)O5)[C@]21O [Ginkgolide A, reference compound] | toxic | toxic | toxic | toxic | do not possess biological activity | toxic | toxic | 
CCCCCCCCCCC(=O)CCc1ccc(O)c(OC)c1 [Compound 45, [9]-dihydroshogaol] |  |  |  |  | effectively protected |  |  | 
βA peptide (1-42): beta-amyloid peptide 1-42 used as the toxic insult [reference compound] |  |  |  |  |  |  |  | ED50 of βA peptide toxicity to PC12 cells (PC12 cells): 5.0 µg/mL; ED50 of βA peptide toxicity to IMR32 cells (IMR32 cells): 6.0 µg/mL
O=C(CCc1ccc(O)cc1)CC(=O)CCc1ccc(O)cc1 [Compound 9] |  |  |  |  | protected |  |  | Anti-βA peptide(1-42) ED50 PC12 (PC12 cells; [3]): 9.0 µg/mL; Anti-βA peptide(25-35) ED50 PC12 (PC12 cells; [3]): 10.0 µg/mL; Antioxidant IC50 [2]: >200 µg/mL; Anti-βA peptide(1-42) ED50 IMR32 (IMR32 cells; [3]): 11.0 µg/mL; Anti-βA peptide(25-35) ED50 IMR32 (IMR32 cells; [3]): 12.0 µg/mL
O=C(C=C(O)C=Cc1ccccc1)CCc1ccc(O)cc1 [Compound 8] |  |  |  |  | cytotoxic |  |  | Anti-βA peptide(1-42) ED50 PC12 (PC12 cells; [3]): toxic; Anti-βA peptide(25-35) ED50 PC12 (PC12 cells; [3]): toxic; Antioxidant IC50 [2]: >200 µg/mL; Anti-βA peptide(1-42) ED50 IMR32 (IMR32 cells; [3]): toxic; Anti-βA peptide(25-35) ED50 IMR32 (IMR32 cells; [3]): toxic
CCCCCC/C=C\CCCCCCCc1cccc(O)c1C(=O)O [Compound 15] | 1.5 µg/mL | 5.0 µg/mL | 2.0 µg/mL | 3.0 µg/mL | protect | 2.5 µg/mL | 3.5 µg/mL | Antioxidant activity (DPPH free radical scavenging), in words [2]: do not possess antioxidant properties
O=c1c(O)c(-c2ccc(O)c(O)c2)oc2cc(O)cc(O)c12 [Quercetin, reference compound] | >20 µg/mL | >20 µg/mL | >20 µg/mL | >20 µg/mL | do not possess biological activity | >20 µg/mL | >20 µg/mL | 
CC1=C(/C=C/C(C)=C/C=C/C(C)=C/CO)C(C)(C)CCC1 [vitamin A, reference compound] |  |  |  |  |  |  |  | Protection of PC12 cells from βA peptide insults (control study) (PC12 cells): did not protect
βA peptide (25-35): beta-amyloid peptide fragment 25-35 used as the toxic insult (GSNKGAIIGLM; Amyloid-beta protein 42; UniProt P05067 696-706, looked up, fragment) [reference compound] |  |  |  |  |  |  |  | ED50 of βA peptide toxicity to HUVEC cells (HUVEC cells; peptide alone): 6.0 µg/mL; ED50 of βA peptide toxicity to PC12 cells (PC12 cells): 1.0 µg/mL; ED50 of βA peptide toxicity to IMR32 cells (IMR32 cells): 3.0 µg/mL
CC(C)(C)[C@]1(O)CC2OC(=O)CC23C(=O)OC2OC(=O)[C@H](O)C231 (single isomer, unassigned; (-)) [(−)-Bilobalide, reference compound] | toxic | toxic | toxic | toxic | do not possess biological activity | toxic | toxic | 
CC1=C(/C=C/C(C)=C/C=C/C(C)=C/C=C/C=C(C)/C=C/C=C(C)/C=C/C2=C(C)CCCC2(C)C)C(C)(C)CCC1 [β-carotene, reference compound] |  |  |  |  |  |  |  | Protection of PC12 cells from βA peptide insults (control study) (PC12 cells): did not protect

— patent publication US7728043B2, “Methods for treatment of beta-amyloid protein-induced ocular disease” (priority 1999, dated 2010)
